Laboratory results reported in US11718626B2, “Macrocyclic compounds for treatment of medical disorders” (Achillion Pharmaceuticals, Inc., priority 2017, dated 2023).

biological target: Human Factor D (purified from human serum) (Homo sapiens (Human), UniProt P00746); assay: Human Factor D Assay; format: biochemical; settings: Human Factor D 80 nM, substrate Z-L-Lys-SBzl, assay of Example 2; read-out: IC50 (Stars)
Protocol: The assay of Example 2 was used to determine the IC50's of the compounds. Other standard Factor D inhibition assays are also available.
Human Factor D (purified from human serum, Complement Technology, Inc.) at 80 nM final concentration is incubated with test compound at various concentrations for 5 min at room temperature in 50 mM Tris, 1M NaCl, pH 7.5. A synthetic substrate Z-L-Lys-SBzl and DTNB (Ellman's reagent) are added to final concentrations of 100 μM each. Absorbance at 405 nm (A405) is recorded at 30 second intervals for 30 minutes using a microplate spectrophotometer. IC50 values are calculated by nonlinear regression of Complement Factor D reaction rates as a function of test compound concentration.

Human Factor D (purified from human serum), sequence (P00746 26-253): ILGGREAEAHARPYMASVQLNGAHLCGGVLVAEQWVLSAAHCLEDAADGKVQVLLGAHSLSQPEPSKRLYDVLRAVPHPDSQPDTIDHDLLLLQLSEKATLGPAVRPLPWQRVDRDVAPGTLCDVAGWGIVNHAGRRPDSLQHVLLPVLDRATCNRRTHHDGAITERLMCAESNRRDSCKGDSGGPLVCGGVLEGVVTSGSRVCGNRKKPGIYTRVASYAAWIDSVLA

Compound | IC50 [nM]
(41R,43S,45R)-42-(2-(3-acetyl-5-(2-methylpyrimidin-5-yl)-1H-indazol-1-yl)acetyl)-16-bromo-6-methyl-7-thia-42,6-diaza-1(2,3)-pyridina-4(3,5)-bicyclo[3.1.0]hexanacycloundecaphan-10-en-3-one 7,7-dioxide [Compound T-17] | < 1000

same assay, conditions: Human Factor D 80 nM, substrate Z-L-Lys-SBzl; Table 6; read-out: IC50

Compound | IC50 [nM]
CC(=O)c1nn2c3c(cc(-c4cnc(C)nc4)cc13)CCCCCCC(=O)NC[C@@]13C[C@@H](C(=O)Nc4cc(Br)ccc4C4CC4)N(C(=O)C2)[C@@H]1C3 [Compound T-212, (41R,43S,45R)-13-acetyl-N-(6-bromo-3-cyclopropylpyridin-2-yl)-15-(2-methylpyrimidin-5-yl)-3,7-dioxo-11H-42,6-diaza-1(1,7)-indazola-4(2,5)-bicyclo[3.1.0]hexanacyclotridecaphane-43-carboxamide] | < 1000
CC(=O)c1nn2c3c(cc(-c4cnc(C)nc4)cc13)CCCCCCC(=O)NC[C@@]13C[C@@H](C(=O)Nc4nc(Br)ccc4F)N(C(=O)C2)[C@@H]1C3 [Compound T-230, (41R,43S,45R)-13-acetyl-N-(6-bromo-3-fluoropyridin-2-yl)-15-(2-methylpyrimidin-5-yl)-3,7-dioxo-11H-42,6-diaza-1(1,7)-indazola-4(2,5)-bicyclo[3.1.0]hexanacyclotridecaphane-43-carboxamide] | < 1000
CC(=O)c1nn2c3c(cc(-c4cnc(C)cn4)cc13)CC=CCCCC(=O)NC[C@@]13C[C@@H](C(=O)Nc4nc(C(F)(F)F)ccc4C)N(C(=O)C2)[C@@H]1C3 [Compound T-219, (41R,43S,45R)-13-acetyl-N-(3-methyl-6-(trifluoromethyl)pyridin-2-yl)-15-(5-methylpyrazin-2-yl)-3,7-dioxo-11H-42,6-diaza-1(1,7)-indazola-4(2,5)-bicyclo[3.1.0]hexanacyclotridecaphan-11-ene-43-carboxamide] | < 1000

same assay, conditions: Human Factor D 80 nM, substrate Z-L-Lys-SBzl; Table 6; read-out: IC50 (Stars)

Compound | IC50 [nM]
CC(=O)c1nn2c3c(nc(-c4cnc(C)nc4)cc13)CCCCCCC(=O)NC[C@@]13C[C@@H](C(=O)Nc4nc(Br)ccc4C)N(C(=O)C2)[C@@H]1C3 [Compound T-166, (41R,43S,45R)-13-acetyl-N-(6-bromo-3-methylpyridin-2-yl)-15-(2-methylpyrimidin-5-yl)-3,7-dioxo-11H-42,6-diaza-1(1,7)-pyrazolo[3,4-c]pyridina-4(2,5)-bicyclo[3.1.0]hexanacyclotridecaphane-43-carboxamide] | < 1000
CC(=O)c1nn2c3c(cc(-c4cnc(C)nc4)cc13)CCCCCC(C)(C)C(=O)N(C)C[C@@]13C[C@@H](C(=O)Nc4nc(C(F)(F)F)ccc4C)N(C(=O)C2)[C@@H]1C3 [Compound T-186, (41R,43S,45R)-13-acetyl-6,8,8-trimethyl-N-(3-methyl-6-(trifluoromethyl)pyridin-2-yl)-15-(2-methylpyrimidin-5-yl)-3,7-dioxo-11H-42,6-diaza-1(1,7)-indazola-4(2,5)-bicyclo[3.1.0]hexanacyclotridecaphane-43-carboxamide] | < 1000
CC(=O)c1nn2c3c(nc(-c4cnc(C)nc4)cc13)CCCCCC(=O)NC[C@@]13C[C@@H](C(=O)Nc4nc(C(F)(F)F)ccc4C)N(C(=O)C2)[C@@H]1C3 [Compound T-124, (41R,43S,45R)-13-acetyl-N-(3-methyl-6-(trifluoromethyl)pyridin-2-yl)-15-(2-methylpyrimidin-5-yl)-3,7-dioxo-11H-42,6-diaza-1(1,7)-pyrazolo[3,4-c]pyridina-4(2,5)-bicyclo[3.1.0]hexanacyclododecaphane-43-carboxamide] | < 1000
CC(=O)c1cn2c3c(cc(-c4cnc(C)nc4)cc13)CCCCCCC(=O)NC[C@@]13C[C@@H](C(=O)Nc4nc(C(F)(F)F)ccc4C)N(C(=O)C2)[C@@H]1C3 [Compound T-159, (41R,43S,45R)-13-acetyl-N-(3-methyl-6-(trifluoromethyl)pyridin-2-yl)-15-(2-methylpyrimidin-5-yl)-3,7-dioxo-11H-42,6-diaza-1(1,7)-indola-4(2,5)-bicyclo[3.1.0]hexanacyclotridecaphane-43-carboxamide] | < 1000
Cc1ncc(-c2cc3c(C#N)nn4c3c(n2)CCCC=CCOC[C@@]23C[C@@H](C(=O)Nc5nc(C(F)(F)F)ccc5C)N(C(=O)C4)[C@@H]2C3)cn1 [Compound T-154, (41R,43S,45S)-13-cyano-N-(3-methyl-6-(trifluoromethyl)pyridin-2-yl)-15-(2-methylpyrimidin-5-yl)-3-oxo-11H-6-oxa-42-aza-1(1,7)-pyrazolo[3,4-c]pyridina-4(2,5)-bicyclo[3.1.0]hexanacyclododecaphan-8-ene-43-carboxamide] | < 1000
